{"source": "patent US20070208087A1", "about": "“Compounds, compositions and methods for the treatment of inflammatory diseases” (priority 2001, published 2007)", "format_in_all_cases": "cell-based", "key": {"[1]": {"test_system": "EOC 13.31 microglia cells", "assay": "NO release inhibition in LPS/IFNγ stimulated microglia, concurrent treatment, Griess reaction at 24 hours (Example 6)", "conditions": "24 hours; for NO release, Avg: 50 μM; for inhibition at 50 µM: Microglia", "method_in_brief": "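Confluent EOC 13.31 microglia were given 50 μM compound together with 1 pg/ml LPS plus 1 ng/ml IFNγ, or without stimulation. NO release was quantified spectrophotometrically by Griess reaction 24 hours later.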"}, "microglia": {"test_system": "microglia", "assay": "Ranking of NO release inhibition (Example 12)", "conditions": "Microglia, ranking table", "excerpt": "The bis- and tris-dihydroxyaryl compounds were ranked in order of effectiveness for the inhibition of NO release as set out in Table 8."}, "Microglial cells": {"test_system": "Microglial cells", "assay": "Dose response inhibition of NO release from microglia, 0.75-200 μM (Example 8)", "method_in_brief": "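Microglia plated at 1×10^5 cells/ml, stimulated with LPS/IFNγ and treated at 0.75, 1.56, 3.125, 6.25, 12.5, 25, 50, 100 and 200 μM. NO release measured after 48 hours by Griess reaction.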"}, "[2]": {"conditions": "dose 0.75 μM, 48 hours, single replicates"}, "[3]": {"conditions": "dose 1.56 μM, 48 hours, single replicates"}, "[4]": {"conditions": "dose 3.125 μM, 48 hours, single replicates"}, "[5]": {"conditions": "dose 6.25 μM, 48 hours, single replicates"}, "[6]": {"conditions": "dose 12.5 μM, 48 hours, single replicates"}, "[7]": {"conditions": "dose 25 μM, 48 hours, single replicates"}, "[8]": {"conditions": "dose 50 μM, 48 hours, single replicates"}, "[9]": {"conditions": "dose 100 μM, 48 hours, single replicates"}}, "note": "“And” between values parts separate entries of the source, which are not always exact repeats. Equal values may be shown once. Read-outs that look alike come from different tables or passages of the source.", "data": [{"compound": "O=C(NCc1ccc(O)c(O)c1)C(=Cc1ccc(O)c(O)c1)NC(=O)c1ccc(O)c(O)c1", "note": "[Compound 21, α-(3,4-dihydroxybenzamido)-3,4-dihydroxycinnamic acid 3,4-dihydroxybenzyl amide]", "values": [{"measurement": "NO release, Avg", "setting": "[1]; Compound + LPS/IFNγ", "result": 15.3486, "unit": "µM"}, {"measurement": "NO release, Avg", "setting": "[1]; Compound Only (without LPS/IFNγ)", "result": -0.0417, "unit": "µM"}, {"measurement": "inhibition at 50 µM", "setting": "[1]; Compound + LPS/IFNγ, read-out: % inhibition of NO release", "result": 17.6, "unit": "%"}, {"measurement": "inhibition at 50 µM", "setting": "[1]; Table 2 summary, LPS/IFNγ, read-out: % Inhibition (summary of inhibition of NO release)", "result": 17.6, "unit": "%"}, {"measurement": "inhibition at 50 µM", "setting": "microglia", "result": 18, "unit": "%"}, {"measurement": "inhibition at 0.75 µM", "setting": "Microglial cells; Microglia, 48 h, dose 0.75 μM", "result": -15.5, "unit": "%"}, {"measurement": "inhibition at 1.56 µM", "setting": "Microglial cells; Microglia, 48 h, dose 1.56 μM", "result": -6.58, "unit": "%"}, {"measurement": "inhibition at 3.125 µM", "setting": "Microglial cells; Microglia, 48 h, dose 3.125 μM", "result": -6.05, "unit": "%"}, {"measurement": "inhibition at 6.25 µM", "setting": "Microglial cells; Microglia, 48 h, dose 6.25 μM, 48 hours, read-out: Avg % Inhibition", "result": -1.84, "unit": "%"}, {"measurement": "inhibition at 12.5 µM", "setting": "Microglial cells; Microglia, 48 h, dose 12.5 μM, 48 hours, read-out: Avg % Inhibition", "result": 5, "unit": "%"}, {"measurement": "inhibition at 25 µM", "setting": "Microglial cells; Microglia, 48 h, dose 25 μM, 48 hours, read-out: Avg % Inhibition", "result": 2.9, "unit": "%"}, {"measurement": "inhibition at 50 µM", "setting": "Microglial cells; Microglia, 48 h, dose 50 μM, 48 hours, read-out: Avg % Inhibition", "result": 13.7, "unit": "%"}, {"measurement": "inhibition at 50 µM", "setting": "Microglial cells; Microglia, 48 h, dose 50 μM, 48 hours, single replicates, read-out: % inhibition", "result": 16.3, "unit": "%"}, {"measurement": "inhibition at 100 µM", "setting": "Microglial cells; Microglia, 48 h, dose 100 μM, 48 hours, read-out: Avg % Inhibition", "result": 33.7, "unit": "%"}, {"measurement": "inhibition at 100 µM", "setting": "Microglial cells; Microglia, 48 h, dose 100 μM, 48 hours, single replicates, read-out: % inhibition", "result": 33.7, "unit": "%"}, {"measurement": "inhibition at 200 µM", "setting": "Microglial cells; Microglia, 48 h, dose 200 μM, 48 hours, read-out: Avg % Inhibition", "result": 69, "unit": "%"}, {"measurement": "inhibition at 200 µM", "setting": "Microglial cells; Microglia, 48 h, dose 200 μM, 48 hours, single replicates, read-out: % inhibition", "result": 67.6, "unit": "%"}, {"measurement": "μM NO release Avg", "setting": "Microglial cells; dose 0.75 μM, 48 hours", "result": 22.865, "unit": "µM"}, {"measurement": "% inhibition", "setting": "Microglial cells; [2]", "result": "−16.05% and −17.63% and −12.89%"}, {"measurement": "OD values (printed under head μM NO release)", "setting": "Microglial cells; [2]", "result": "0.195 and 0.199 and 0.201"}, {"measurement": "μM NO release", "setting": "Microglial cells; [2]", "result": "22.344 µM and 22.969 µM and 23.281 µM"}, {"measurement": "μM NO release Avg", "setting": "Microglial cells; dose 1.56 μM, 48 hours", "result": 21.094, "unit": "µM"}, {"measurement": "% inhibition", "setting": "Microglial cells; [3]", "result": "−8.16% and −9.74% and −1.84%"}, {"measurement": "OD values (printed under head μM NO release)", "setting": "Microglial cells; [3]", "result": "0.181 and 0.189 and 0.191"}, {"measurement": "μM NO release", "setting": "Microglial cells; [3]", "result": "20.156 µM and 21.406 µM and 21.719 µM"}, {"measurement": "μM NO release Avg", "setting": "Microglial cells; dose 3.125 μM, 48 hours", "result": 20.990, "unit": "µM"}, {"measurement": "% inhibition", "setting": "Microglial cells; [4]", "result": "−4.21% and −8.16% and −5.79%"}, {"measurement": "OD values (printed under head μM NO release)", "setting": "Microglial cells; [4]", "result": "0.186 and 0.184 and 0.189"}, {"measurement": "μM NO release", "setting": "Microglial cells; [4]", "result": "20.938 µM and 20.625 µM and 21.406 µM"}, {"measurement": "μM NO release Avg", "setting": "Microglial cells; dose 6.25 μM, 48 hours", "result": 20.156, "unit": "µM"}, {"measurement": "% inhibition", "setting": "Microglial cells; [5]", "result": "2.89% and −3.42%"}, {"measurement": "OD values (printed under head μM NO release)", "setting": "Microglial cells; [5]", "result": "0.183 and 0.175 and 0.185"}, {"measurement": "μM NO release", "setting": "Microglial cells; [5]", "result": "20.469 µM and 19.219 µM and 20.781 µM"}, {"measurement": "μM NO release Avg", "setting": "Microglial cells; dose 12.5 μM, 48 hours", "result": 18.802, "unit": "µM"}, {"measurement": "% inhibition", "setting": "Microglial cells; [6]", "result": "5.26% and −4.21% and 13.95%"}, {"measurement": "OD values (printed under head μM NO release)", "setting": "Microglial cells; [6]", "result": "0.161 and 0.172 and 0.184"}, {"measurement": "μM NO release", "setting": "Microglial cells; [6]", "result": "17.031 µM and 18.750 µM and 20.625 µM"}, {"measurement": "μM NO release Avg", "setting": "Microglial cells; dose 25 μM, 48 hours", "result": 19.219, "unit": "µM"}, {"measurement": "% inhibition", "setting": "Microglial cells; [7]", "result": "7.63% and 1.32% and −0.26%"}, {"measurement": "OD values (printed under head μM NO release)", "setting": "Microglial cells; [7]", "result": "0.179 and 0.169 and 0.177"}, {"measurement": "μM NO release", "setting": "Microglial cells; [7]", "result": "19.844 µM and 18.281 µM and 19.531 µM"}, {"measurement": "μM NO release Avg", "setting": "Microglial cells; dose 50 μM, 48 hours", "result": 17.083, "unit": "µM"}, {"measurement": "% inhibition", "setting": "Microglial cells; [8]", "result": "10.79% and 13.95%"}, {"measurement": "OD values (printed under head μM NO release)", "setting": "Microglial cells; [8]", "result": "0.161 and 0.158 and 0.165"}, {"measurement": "μM NO release", "setting": "Microglial cells; [8]", "result": "17.031 µM and 16.563 µM and 17.656 µM"}, {"measurement": "μM NO release Avg", "setting": "Microglial cells; dose 100 μM, 48 hours", "result": 13.125, "unit": "µM"}, {"measurement": "OD values (printed under head μM NO release)", "setting": "Microglial cells; [9]", "result": 0.136}, {"measurement": "μM NO release", "setting": "Microglial cells; [9]", "result": 13.125, "unit": "µM"}, {"measurement": "Avg % Inhibition", "setting": "Microglial cells; dose 200 μM, 48 hours", "result": 69.211, "unit": "%"}]}]}
